Results published in DBAASP.
In brackets after ≈: the same amount, converted by molar mass.

Key:
Experiment in all cases: ≥ marks a high value that may be exact or a test limit, other limits are often not marked, values filed in µg/mL are converted to µM
[1] = test system: Acinetobacter baumannii Ab1408
[2] = test system: Acinetobacter baumannii Ab5755
[3] = test system: Acinetobacter baumannii ICB 14072
[4] = test system: Acinetobacter baumannii ICB 14073
[5] = test system: Acinetobacter baumannii ICB 9250
[6] = test system: Acinetobacter baumannii M17
[7] = test system: Bacillus subtilis ATCC 63501
[8] = test system: Enterobacter cloacae 34654
[9] = test system: Enterobacter cloacae Ha088
[10] = test system: Enterobacter cloacae Ha089
[11] = test system: Enterobacter cloacae Ha185
[12] = test system: Enterobacter cloacae Ha89
[13] = test system: Enterococcus faecalis ATCC 29212
[14] = test system: Escherichia coli DSM 1103
Escherichia coli Ec513 = test system: Escherichia coli Ec513
Escherichia coli J2210 = test system: Escherichia coli J2210
Escherichia coli Neumann = test system: Escherichia coli Neumann
Escherichia coli = test system: Escherichia coli
[15] = test system: Klebsiella pneumoniae 57 USA
[16] = test system: Klebsiella pneumoniae ATCC 10031
[17] = test system: Klebsiella pneumoniae ATCC 12657
[18] = test system: Klebsiella pneumoniae CMCC 46117
[19] = test system: Micrococcus luteus ATCC 10240
[20] = test system: Proteus vulgaris ICB 9095
[21] = test system: Pseudomonas aeruginosa ATCC 27853
[22] = test system: Pseudomonas aeruginosa DSM 3227
[23] = test system: Pseudomonas aeruginosa Pa1409
[24] = test system: Pseudomonas aeruginosa Walter
Pseudomonas aeruginosa = test system: Pseudomonas aeruginosa
[25] = test system: Salmonella typhimurium CMCC 50115
[26] = test system: Salmonella typhimurium SL1344
[27] = test system: Shigella flexneri ATCC 12022
[28] = test system: Shigella flexneri CMCC 51572
[29] = test system: Staphylococcus aureus Sa1390
[30] = test system: Stenotrophomonas sp. ICB 308054
[31] = test system: Stenotrophomonas sp. ICB 7569
[32] = test system: Stenotrophomonas sp. ICB 7789

MIC [1]: ≥ 53.5 µM
MIC [2]: ≥ 53.5 µM
MIC [3]: 0.418 µM (≈ 1 µg/mL)
MIC [4]: 0.837 µM (≈ 2 µg/mL)
MIC [5]: 0.209 µM (≈ 0.5 µg/mL)
MIC [6]: 0.418 µM (≈ 1 µg/mL)
MIC [7]: ≥ 512 µM
MIC [8]: 0.105 µM (≈ 0.25 µg/mL)
MIC [9]: 0.0523 µM (≈ 0.125 µg/mL)
MIC [10]: 0.0523 µM (≈ 0.125 µg/mL)
MIC [11]: 0.209 µM (≈ 0.5 µg/mL)
MIC [12]: 0.105 µM (≈ 0.25 µg/mL)
MIC [13]: > 512 µM
MIC [14]: 3.35 µM (≈ 8 µg/mL)
MIC (Escherichia coli Ec513): ≥ 53.5 µM
MIC (Escherichia coli J2210): 0.33 µM (≈ 0.79 µg/mL)
MIC (Escherichia coli Neumann): 0.837 µM (≈ 2 µg/mL)
MIC (Escherichia coli): 0.296 µM (≈ 0.707 µg/mL)
MIC [15]: 0.105 µM (≈ 0.25 µg/mL)
MIC [16]: 4 µM (≈ 9.56 µg/mL)
MIC [17]: 0.209 µM (≈ 0.5 µg/mL)
MIC [18]: 2 µM (≈ 4.78 µg/mL)
MIC [19]: 3.35 µM (≈ 8 µg/mL)
MIC [20]: 1.67 µM (≈ 4 µg/mL)
MIC [21]: 1.67 µM (≈ 4 µg/mL)
MIC [22]: 1.67 µM (≈ 4 µg/mL)
MIC [23]: ≥ 53.5 µM
MIC [24]: 3.35 µM (≈ 8 µg/mL)
MIC (Pseudomonas aeruginosa): 1.18 µM (≈ 2.83 µg/mL)
MIC [25]: 8 µM (≈ 19.1 µg/mL)
MIC [26]: 0.251 µM (≈ 0.6 µg/mL)
MIC [27]: 16 µM (≈ 38.2 µg/mL)
MIC [28]: 8 µM (≈ 19.1 µg/mL)
MIC [29]: ≥ 53.5 µM
MIC [30]: 13.4 µM (≈ 32 µg/mL)
MIC [31]: 3.35 µM (≈ 8 µg/mL)
MIC [32]: 13.4 µM (≈ 32 µg/mL)
Compound: CC[C@H](C)[C@H](NC(=O)[C@H](CCCN=C(N)N)NC(=O)[C@H](CCCN=C(N)N)NC(=O)[C@@H]1CCCN1C(=O)[C@@H]1CCCN1C(=O)[C@H](CCCN=C(N)N)NC(=O)[C@@H]1CCCN1C(=O)[C@H](CCCN=C(N)N)NC(=O)[C@@H]1CCCN1C(=O)[C@H](CC(C)C)NC(=O)[C@H](Cc1ccc(O)cc1)NC(=O)[C@@H]1CCCN1C(=O)[C@@H]1CCCN1C(=O)[C@H](CCCCN)NC(=O)[C@H](CC(=O)O)NC(=O)[C@@H](N)C(C)C)C(=O)N[C@@H](Cc1ccc(O)cc1)C(=O)N[C@@H](CC(N)=O)C(=O)N[C@@H](CCCN=C(N)N)C(N)=O [VDKPPYLPRPRPPRRIYNR]
